The text below walks through data of the OPERA property sets (Mansouri et al. 2018).

Conditions in one series: not given
By boiling point is commonly meant the temperature at which the vapour pressure of the liquid equals the pressure above it. A word on the melting point: it is the temperature of the solid-liquid transition. On to `CC(C)C(C)(C)C(C)(C)C`, for which the boiling point worked out at 166 °C and the melting point was -36.4 °C. In the case of `CC(C)(C)C(C)(C)O`, the boiling point came to 131 °C and the melting point amounted to 17 °C.

As for `N#Cc1ccccc1Cl`, the boiling point is 232 °C, the melting point was 46.3 °C and the ready biodegradability entry is “not readily biodegradable”. Take `CC=Cc1ccc(OC)c(OC)c1`: the boiling point came out at 270 °C and the melting point came out at 18 °C.

Consider `CCCCN(CCO)CCCC`, for which the boiling point amounted to 229 °C, the melting point was -75 °C and the ready biodegradability entry was “not readily biodegradable”. Compound `O=Cc1c(F)c(F)c(F)c(F)c1F` returned a boiling point of 167 °C and a melting point of 20 °C. Regarding `O=C(O)CCCCCCC(=O)O`, the boiling point was 346 °C, the log10 vapour pressure (mmHg) is -6.54 and the melting point is 144 °C.

`O=C(O)c1ccc2ccccc2c1`: the log10 vapour pressure (mmHg) was -5.18, the melting point was determined as 186 °C and the ready biodegradability entry was “readily biodegradable”.

Regarding `O=[N+]([O-])c1c(F)c(F)c(F)c(F)c1F`, the boiling point turned out to be 160 °C. On to `CCCCCCCC(=O)CCC`, for which the melting point was determined as 4.5 °C. Compound `Clc1c(Cl)c(Cl)c2nccnc2c1Cl` showed a melting point of 190 °C. `Oc1ccc2cccc(Cl)c2c1` came in with a boiling point of 308 °C and a melting point of 101 °C.

Take `CC(O)CN(CCN(CC(C)O)CC(C)O)CC(C)O` (configuration not stated): the ready biodegradability result is recorded as “not readily biodegradable”. With `ClCCCCCCCCCCCl`, the melting point was 15.6 °C. Regarding `C=CC#CC=C`, the boiling point is 85 °C and the melting point was -88 °C. In the case of `COC(=O)c1cccc(C)c1`, the boiling point was 221 °C. The compound `CC(C)=CCN1CC[C@@]2(C)c3cc(O)ccc3C[C@@H]1[C@@H]2C` registered a melting point of 146 °C.

For `O=[N+]([O-])c1cc(F)cc(F)c1`, the boiling point was 176 °C and the melting point was determined as 17 °C. `COc1ccc2cc1Oc1ccc(cc1)C[C@H]1c3cc(c(OC)cc3CCN1C)Oc1c(OC)c(OC)cc3c1[C@H](C2)N(C)CC3` came in with a melting point of 218 °C. For the compound `COc1cccc(N(C)C(=S)Oc2cccc(C(C)(C)C)c2)n1`, the melting point worked out at 86 °C. Still for that read-out and setting: under `CC(=O)Oc1cc(C(C)C)c(OCCN(C)C)cc1C` stands 144 °C; under `CC(C)[C@@H](C)/C=C/[C@@H](C)[C@H]1CC[C@H]2/C(=C/C=C3\C[C@@H](O)CC[C@@H]3C)CCC[C@]12C`, 126 °C.

On to `CCCCCCCCCCCCCCCCCCCc1ccccc1`, for which the boiling point stood at 419 °C and the melting point was found to be 40 °C. On to `CC(C)(C)c1cc([N+](=O)[O-])c(O)c([N+](=O)[O-])c1`, for which the melting point was determined as 95 °C. As for `CC(C)CN1CCOCC1`, the boiling point worked out at 181 °C and the ready biodegradability entry is on record as “not readily biodegradable”.

Compound `CCCCCCO[N+](=O)[O-]` yielded a boiling point of 171 °C, a log10 Henry constant (atm·m³/mol) of -2.83 and a log10 vapour pressure (mmHg) of 0.199.

As to `CC1(C)C2CC3OC3(C)C1C2` (configuration not stated), the boiling point worked out at 185 °C and the log10 vapour pressure (mmHg) was -0.0872. With `BrC=Cc1ccccc1`, the melting point is 7 °C and the ready biodegradability entry was “not readily biodegradable”.

As for `Cc1ccccc1N.Cl`, the boiling point stood at 242 °C and the melting point was 215 °C.

The compound `Cc1cccc(C(N)=O)c1` displayed a melting point of 95 °C.

As to `Nc1c(Cl)cc(Cl)cc1Br`, the boiling point is 273 °C and the melting point is 83.5 °C. As to `CSC(=O)c1cccc2nnsc12`, the boiling point was 267 °C, the log10 vapour pressure (mmHg) is -5.48 and the melting point came out at 133 °C. As for `CCC#CCCCC`, the boiling point is 133 °C and the melting point was -104 °C. Take `CCCCOP(=O)(O)OCCCC`: the melting point is -13 °C and the ready biodegradability entry is listed as “not readily biodegradable”.

Staying with this series, now noted: fish.
Consider `CC(C)CN1CCOCC1`, for which the log10 BCF was determined as 0.25.
